Assays:
[1] = Accelerated stability study of topical gel formulations at 80° C.; type: physicochemical; conditions: gel formulation, 3 days
[2] = as above; type: physicochemical; conditions: for Stability in gel formulation: 80° C. for 10 days; for percent hydrolysis to the parent compound MTPP: gel formulation, 80° C.
Experimental: Topical gel formulations were prepared using excipients as shown in Table 2 according to Example 8, in which Compounds 1.002, 1.012, and 1.006 were used as the active ingredient, respectively. These gel formulations were subjected to stability study at 80° C. for 10 days. Stability under the condition of at 80° C. for 10 days is expected to be approximately equivalent to the stability for three (3) years at room temperature. A relative purity of the tested compound after being exposed for 5 days and 10 days at 80° C. was determined by HPLC, as compared to its initial purity (at day 0).
The values shown in the table are percent hydrolysis of the respective compounds to the parent compound MTPP.
Topical gel formulations of Compound 1.002 were prepared using excipients as shown in Table 2 according to Example 8, in which the content of oleic acid varied at 1%, 2%, 5%, and 10%, respectively. These gel formulations were subjected to stability study at 80° C. for 10 days, which is expected to be approximately equivalent to the stability for three (3) years at room temperature. A purity of the tested compound on day 0, 5, 7, and 10 at 80° C. was determined by HPLC. The detected impurity of the tested compound appears to be the hydrolysis product, as MTPP. Table 17 represents stability data of Compound 1.002 in topical formulations having oleic acid at various contents.
Gel formulations of Example 17 were subjected to stability study at 80° C. for 10 days. Stability under the condition of at 80° C. for 10 days is expected to be approximately equivalent to the stability for three (3) years at room temperature. A relative purity of Compound 1.002 after being exposed for 5 days and 10 days at 80° C. was determined by HPLC, as compared to its initial purity (at day 0).

[3] = biological target: T1, PI3K (p110a(E542K)/p85a) (Homo sapiens, UniProt P42336, E542K); assay: Lipid kinase inhibitory activity, ADP-Glo; type: biochemical; conditions: α E542K
T1 construct: purchased Reaction Biology Corporation (RBC)
T1 sequence (P42336 whole entry E542K): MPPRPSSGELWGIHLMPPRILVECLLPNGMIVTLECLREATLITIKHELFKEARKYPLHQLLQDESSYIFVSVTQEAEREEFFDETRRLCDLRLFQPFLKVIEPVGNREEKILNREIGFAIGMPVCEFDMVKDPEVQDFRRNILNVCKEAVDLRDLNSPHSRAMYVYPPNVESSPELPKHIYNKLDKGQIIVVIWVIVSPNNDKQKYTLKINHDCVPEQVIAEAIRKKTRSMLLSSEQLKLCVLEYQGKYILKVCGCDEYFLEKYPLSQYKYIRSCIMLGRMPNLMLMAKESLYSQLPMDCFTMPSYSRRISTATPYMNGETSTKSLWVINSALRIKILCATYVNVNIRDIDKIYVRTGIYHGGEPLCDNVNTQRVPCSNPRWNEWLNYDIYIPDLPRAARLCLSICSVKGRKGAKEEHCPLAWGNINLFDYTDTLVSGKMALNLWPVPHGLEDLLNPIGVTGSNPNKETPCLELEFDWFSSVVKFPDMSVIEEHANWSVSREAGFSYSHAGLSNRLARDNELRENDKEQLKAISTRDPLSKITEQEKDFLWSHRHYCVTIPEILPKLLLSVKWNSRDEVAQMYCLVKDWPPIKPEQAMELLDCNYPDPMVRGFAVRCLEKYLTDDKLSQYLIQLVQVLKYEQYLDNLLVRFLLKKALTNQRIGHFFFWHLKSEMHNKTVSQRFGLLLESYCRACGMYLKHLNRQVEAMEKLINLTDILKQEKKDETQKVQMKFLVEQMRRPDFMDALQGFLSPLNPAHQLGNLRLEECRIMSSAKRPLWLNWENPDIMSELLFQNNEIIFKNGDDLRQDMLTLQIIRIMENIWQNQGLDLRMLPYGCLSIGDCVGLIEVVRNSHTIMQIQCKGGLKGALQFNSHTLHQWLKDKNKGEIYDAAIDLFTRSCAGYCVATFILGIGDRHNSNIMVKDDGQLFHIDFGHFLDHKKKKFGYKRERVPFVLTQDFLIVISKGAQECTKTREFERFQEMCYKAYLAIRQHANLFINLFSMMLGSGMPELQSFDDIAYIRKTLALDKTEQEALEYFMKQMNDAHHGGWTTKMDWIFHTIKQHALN
T1 sequence (P27986 whole entry partner): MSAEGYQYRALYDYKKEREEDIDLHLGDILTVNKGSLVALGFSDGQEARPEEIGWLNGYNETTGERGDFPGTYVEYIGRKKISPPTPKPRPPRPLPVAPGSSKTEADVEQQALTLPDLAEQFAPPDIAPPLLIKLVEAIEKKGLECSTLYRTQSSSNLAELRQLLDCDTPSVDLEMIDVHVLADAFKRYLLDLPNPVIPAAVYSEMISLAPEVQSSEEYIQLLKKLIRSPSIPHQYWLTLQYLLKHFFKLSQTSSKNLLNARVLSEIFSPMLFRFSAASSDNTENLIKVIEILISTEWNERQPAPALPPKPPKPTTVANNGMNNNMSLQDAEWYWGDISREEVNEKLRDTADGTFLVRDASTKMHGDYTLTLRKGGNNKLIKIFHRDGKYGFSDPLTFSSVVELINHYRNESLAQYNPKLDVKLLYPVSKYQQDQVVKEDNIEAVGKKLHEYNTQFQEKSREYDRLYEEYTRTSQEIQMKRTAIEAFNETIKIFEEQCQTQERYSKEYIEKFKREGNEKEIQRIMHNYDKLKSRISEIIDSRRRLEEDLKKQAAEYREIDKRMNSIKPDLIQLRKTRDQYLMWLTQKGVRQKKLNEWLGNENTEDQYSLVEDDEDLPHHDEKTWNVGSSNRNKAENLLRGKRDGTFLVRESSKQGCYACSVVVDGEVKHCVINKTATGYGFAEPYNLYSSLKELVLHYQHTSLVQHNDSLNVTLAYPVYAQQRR
Experimental: (§1) Lipid kinases: Lipid kinases from Reaction Biology Corporation (RBC) in ADP-Glo format were used.
(§2) Assay Description: The kinase reactions utilized ATP and produced ADP as a byproduct. The ADP production was quantified by ADP-Glo luminescence detection. This assay was a 3-step reaction. First, the kinase reaction with lipid substrate was carried out in the presence of ATP, and the reaction was quenched and depleted remaining ATP with ADP-Glo™ reagent, and then finally ADP was converted to ATP which was measured using a luciferase/luciferin reaction.
(§3) Assay Procedure: The assay was performed according to the steps as follows: • 1. Preparing substrate in freshly prepared reaction buffer; • 2. Delivering kinase into the substrate solution and gently mixing; • 3. Delivering compounds in […] into the kinase reaction mixture by Acoustic technology (Echo550; nanoliter range), incubating for 20 minutes at room temperature; • 4. Delivering ATP into the reaction mixture to initiate the reaction; • 5. Incubating for 30 minutes at 30° C.; • 6. Quenching the reaction with ADP-Glo reagent and incubating for 40 minutes; • 7. Adding Detection Mixture and incubating for 30 minutes; and • 8. Measuring luminescence.
(§4) Data Analysis: The luminescence was converted into μM ADP production based on ADP standard curves. The nonlinear regression to obtain the standard curve and IC50 values were performed using Graphpad Prism software.

[4] = biological target: T2, MTOR/FRAP1 (Homo sapiens, UniProt P42345); assay: Lipid kinase inhibitory activity, ADP-Glo; type: biochemical
T2 construct: purchased Reaction Biology Corporation (RBC)
Experimental: as §1, §2, §3, §4

[5] = biological target: T3, PI3K (p110a(E545K)/p85a) (Homo sapiens, UniProt P42336, E545K); assay: Lipid kinase inhibitory activity, ADP-Glo; type: biochemical; conditions: α E545K
T3 construct: purchased Reaction Biology Corporation (RBC)
T3 sequence (P42336 whole entry E545K): as the sequence (P42336 whole entry E542K) above, with K542E, E545K counted along it
T3 sequence (P27986 whole entry partner): as the sequence (P27986 whole entry partner) above
Experimental: as §1, §2, §3, §4

[6] = biological target: T4, PI3Kg (p110g) (Homo sapiens, UniProt P48736); assay: Lipid kinase inhibitory activity, ADP-Glo; type: biochemical; conditions: γ
T4 construct: purchased Reaction Biology Corporation (RBC)
Experimental: as §1, §2, §3, §4

[7] = biological target: T5, PI3Kd (p110d/p85a) (Homo sapiens, UniProt O00329); assay: Lipid kinase inhibitory activity, ADP-Glo; type: biochemical; conditions: δ
T5 construct: purchased Reaction Biology Corporation (RBC)
T5 sequence (O00329 whole entry): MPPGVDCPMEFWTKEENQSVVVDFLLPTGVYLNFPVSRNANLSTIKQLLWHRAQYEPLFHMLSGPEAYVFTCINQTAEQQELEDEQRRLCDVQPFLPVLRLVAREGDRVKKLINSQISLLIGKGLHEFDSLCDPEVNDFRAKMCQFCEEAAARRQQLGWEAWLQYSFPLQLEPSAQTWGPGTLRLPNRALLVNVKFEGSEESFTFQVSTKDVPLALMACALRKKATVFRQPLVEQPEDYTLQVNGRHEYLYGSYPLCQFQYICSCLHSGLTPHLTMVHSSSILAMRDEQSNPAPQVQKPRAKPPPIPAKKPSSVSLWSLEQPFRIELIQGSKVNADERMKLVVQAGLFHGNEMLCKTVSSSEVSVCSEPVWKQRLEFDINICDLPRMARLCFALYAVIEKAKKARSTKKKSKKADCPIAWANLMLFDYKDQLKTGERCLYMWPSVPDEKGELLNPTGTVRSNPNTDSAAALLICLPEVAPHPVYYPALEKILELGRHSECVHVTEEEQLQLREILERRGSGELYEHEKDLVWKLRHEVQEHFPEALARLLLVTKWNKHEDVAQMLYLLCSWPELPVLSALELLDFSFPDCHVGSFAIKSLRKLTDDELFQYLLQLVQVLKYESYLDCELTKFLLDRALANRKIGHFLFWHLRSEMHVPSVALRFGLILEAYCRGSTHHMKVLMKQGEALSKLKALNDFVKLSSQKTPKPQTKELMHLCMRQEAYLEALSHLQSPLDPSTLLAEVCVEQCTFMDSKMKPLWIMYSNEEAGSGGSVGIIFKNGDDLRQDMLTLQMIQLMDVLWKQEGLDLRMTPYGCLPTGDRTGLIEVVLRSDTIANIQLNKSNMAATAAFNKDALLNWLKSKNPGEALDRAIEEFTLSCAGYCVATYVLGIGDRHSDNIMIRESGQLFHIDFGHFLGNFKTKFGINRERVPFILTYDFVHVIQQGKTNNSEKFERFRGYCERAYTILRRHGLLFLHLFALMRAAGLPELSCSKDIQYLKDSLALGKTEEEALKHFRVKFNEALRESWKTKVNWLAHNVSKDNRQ
T5 sequence (P27986 whole entry partner): as the sequence (P27986 whole entry partner) above
Experimental: as §1, §2, §3, §4

[8] = biological target: T6, PI3Kb (p110b/p85a) (Homo sapiens, UniProt P42338); assay: Lipid kinase inhibitory activity, ADP-Glo; type: biochemical; conditions: β
T6 construct: purchased Reaction Biology Corporation (RBC)
T6 sequence (P42338 whole entry): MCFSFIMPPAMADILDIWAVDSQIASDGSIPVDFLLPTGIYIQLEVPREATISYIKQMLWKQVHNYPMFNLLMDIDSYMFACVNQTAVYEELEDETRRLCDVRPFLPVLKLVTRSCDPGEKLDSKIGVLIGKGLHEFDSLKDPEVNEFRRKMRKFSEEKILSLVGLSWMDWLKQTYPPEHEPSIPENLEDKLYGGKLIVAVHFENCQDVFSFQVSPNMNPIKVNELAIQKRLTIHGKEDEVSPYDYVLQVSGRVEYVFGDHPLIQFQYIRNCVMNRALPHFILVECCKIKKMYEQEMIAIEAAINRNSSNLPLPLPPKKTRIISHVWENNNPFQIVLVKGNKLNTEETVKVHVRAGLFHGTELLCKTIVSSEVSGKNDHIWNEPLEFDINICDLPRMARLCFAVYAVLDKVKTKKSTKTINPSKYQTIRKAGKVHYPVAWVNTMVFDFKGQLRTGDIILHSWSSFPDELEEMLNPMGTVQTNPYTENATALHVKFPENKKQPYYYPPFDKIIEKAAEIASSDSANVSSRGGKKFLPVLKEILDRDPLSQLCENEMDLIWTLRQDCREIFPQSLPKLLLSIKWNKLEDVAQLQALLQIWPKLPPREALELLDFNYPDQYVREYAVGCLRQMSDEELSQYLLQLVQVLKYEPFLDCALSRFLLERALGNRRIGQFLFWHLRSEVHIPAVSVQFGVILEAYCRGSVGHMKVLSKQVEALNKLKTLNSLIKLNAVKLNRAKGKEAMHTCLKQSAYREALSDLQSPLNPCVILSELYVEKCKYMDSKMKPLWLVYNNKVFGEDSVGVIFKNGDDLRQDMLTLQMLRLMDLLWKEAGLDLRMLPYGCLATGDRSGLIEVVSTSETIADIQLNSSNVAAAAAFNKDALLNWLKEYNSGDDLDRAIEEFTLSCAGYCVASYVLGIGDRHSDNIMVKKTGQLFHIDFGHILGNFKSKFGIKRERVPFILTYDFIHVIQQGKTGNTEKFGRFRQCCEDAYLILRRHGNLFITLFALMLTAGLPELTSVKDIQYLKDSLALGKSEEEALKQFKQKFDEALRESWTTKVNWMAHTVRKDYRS
T6 sequence (P27986 whole entry partner): as the sequence (P27986 whole entry partner) above
Experimental: as §1, §2, §3, §4

[9] = biological target: T7, PI3K (p110a(H1047R)/p85a) (Homo sapiens, UniProt P42336, H1047R); assay: Lipid kinase inhibitory activity, ADP-Glo; type: biochemical; conditions: α H1047R
T7 construct: purchased Reaction Biology Corporation (RBC)
T7 sequence (P42336 whole entry H1047R): as the sequence (P42336 whole entry E542K) above, with K542E, H1047R counted along it
T7 sequence (P27986 whole entry partner): as the sequence (P27986 whole entry partner) above
Experimental: as §1, §2, §3, §4

[10] = biological target: T8, PI3Ka (p110a/p85a) (Homo sapiens, UniProt P42336); assay: Lipid kinase inhibitory activity, ADP-Glo; type: biochemical; conditions: α
T8 construct: purchased Reaction Biology Corporation (RBC)
T8 sequence (P42336 whole entry): as the sequence (P42336 whole entry E542K) above, with K542E counted along it
T8 sequence (P27986 whole entry partner): as the sequence (P27986 whole entry partner) above
Experimental: as §1, §2, §3, §4

| percent hydrolysis to the parent compound MTPP [1] [%] | Stability in gel formulation [2] | percent hydrolysis to the parent compound MTPP ([2]; 0 days) [%] | percent hydrolysis to the parent compound MTPP ([2]; 5 days) [%] | percent hydrolysis to the parent compound MTPP ([2]; 7 days) [%] | percent hydrolysis to the parent compound MTPP ([2]; 10 days) [%] | IC50 [3] [µM] | IC50 [4] [µM] | IC50 [5] [µM] | IC50 [6] [µM] | IC50 [7] [µM] | IC50 [8] [µM] | IC50 [9] [µM] | IC50 [10] [µM] | SMILES |
| --- | --- | --- | --- | --- | --- | --- | --- | --- | --- | --- | --- | --- | --- | --- |
| 0.18 | very stable | 0.09 | 0.24 | 0.33 | 0.43 | – | – | – | – | – | – | – | – | CCCCCCCC/C=C\CCCCCCCC(=O)Oc1cccc(-c2nc(N3CCOCC3)c3sccc3n2)c1 [Compound 1.011, 3-(4-Morpholinothieno[3,2-d]pyrimidin-2-yl)phenyl Oleate] |
| 1.32 | very stable | 0.00 | 2.09 | 2.43 | 2.94 | – | – | – | – | – | – | – | – | O=C(/C=C/c1ccccc1)Oc1cccc(-c2nc(N3CCOCC3)c3sccc3n2)c1 [Compound 1.014, 3-(4-Morpholinothieno[3,2-d]pyrimidin-2-yl)phenyl Cinnamate] |
| – | – | – | – | – | – | 3.69 | 3.32 | 4.31 | 0.131 | 0.714 | 5.59 | 3.11 | 1.93 | CC(=O)OCc1cccc(-c2nc(N3CCOCC3)c3sccc3n2)c1 [Compound 1.015, 3-(4-Morpholinothieno[3,2-d]pyrimidin-2-yl)benzyl acetate] |
| – | – | – | – | – | – | 0.009 | 0.113 | 0.0098 | 0.061 | 0.017 | 0.056 | 0.0078 | 0.007 | OCc1cccc(-c2nc(N3CCOCC3)c3sccc3n2)c1 [MTPPM, (3-(4-morpholinothieno[3,2-d]pyrimidin-2-yl)phenyl)methanol, reference compound] |

Source: patent US12522614B2, “Topical phosphoinositide 3-kinase inhibitors” (VENTHERA, INC., priority 2019, dated 2026)
